Assay results published in patent US20010010919A1 (priority 1998, published 2001).
“Also recorded” adds a separate entry of the source.

Legend:
[1] = molecular target: T1, novel mammalian opioid receptor (LC132, OFQR) (Rattus norvegicus, UniProt P35370); format: binding
T1 construct: The entire coding region of the receptor cDNA insert was subcloned into the RcRVS vector; expressed in transfected cells

Swiss-Webster mice [2] = assay: Reversal of morphine analgesia, 49° C. TW test; format: in vivo, mouse
DBA/2J mice = assay: Morphine hypothermia and Straub tail, core body temperature
[3] = test system: untransfected COS-7 and Ltk^− cells; assay: Radioligand binding to membranes of untransfected cells (control); settings: untransfected cell membranes
Swiss-Webster mice [4] = assay: Tail-withdrawal (TW) test 46° C., stress-induced analgesia; format: in vivo, mouse; settings: for hyperalgesia: 46° C. TW test; for effect on the 4 s post-injection increase in TW latency (stress-induced analgesia): OFQ 10 nmole icv, naloxone 1 mg/kg sc
Protocol: The latency to respond to the heat stimulus by a vigorous flexion of the tail was measured to the nearest 0.1 s by an experienced observer blind to the drug condition of the animal. Mice were lightly restrained in a cloth/cardboard holder during testing. In the absence of a withdrawal reflex or other indication of distress, the tail was removed from the water after a cut-off latency of 15 s. To improve accuracy, three separate TW latency determinations, separated by 20 s, were made and averaged at each test. […] Because there were no changes in post-injection TW latencies in any group with repeated testing at 10, 20 and 30 min post-injection, data from these time points were pooled.

mice [5] = assay: Acetic acid abdominal constriction (AC, writhing) test; format: in vivo, mouse; settings: for effect on SIA (decreased number of abdominal constrictions): OFQ 2.5 nmole icv, NAL sc
Protocol: This test is an extremely sensitive measure of tonic, chemically-induced pain stimulus.
The AC assay was a modification of the technique originally described by Koster et al. Mice (N=9-15 per group) were acclimated to individual cylindrical Plexiglass observation chambers for >30 minutes. […] A separate group of Sal-treated mice received no icv injection (None). Between 5 and 10 minutes later, all mice were given an intraperitoneal (ip) injection of 0.9% acetic acid and placed back in their observation chambers. For the next 30 minutes, the number of abdominal constrictions (lengthwise stretches of the torso with a concomitant concave arching of the back) were counted and recorded. Four mice in separate chambers were observed simultaneously by a single experimenter blind to drug condition.

mice [6] = assay: Nociception in mice (hot plate, toe- and tail-pinch) after icv or intrathecal administration; format: in vivo, mouse
C57BL/6J mice = assay: Precipitation of withdrawal in morphine dependent mice (withdrawal jumping); format: in vivo, mouse
[7] = Meunier et al., Nature 377,532-535 (1995); cited from earlier work
mice [8] = assay: Open-field observation and locomotor activity after icv administration; format: in vivo, mouse
Protocol: For these experiments, the peptide was administered intracerebroventricularly (icv) and intrathecally (it) in mice. Immediately after peptide administration, mice were placed in transparent boxes in groups of three, and behavioral signs recorded. Emphasis was placed on signs indicative of depressant, stimulant and autonomic effects of the peptide (as described by Irwin, 1968, Psychopharmacologia 13: 222). […] The effects of the peptide on horizontal and vertical locomotor activity was measured using Digiscan Animal Activity Monitors (Omnitech, Columbus, Ohio). The values for horizontal and vertical locomotor activity represent the total number of interruptions of the horizontal and vertical sensors during the first 10 minutes following administration of the peptide. Data are shown as the mean±standard error of the mean.

T1 sequence (P35370 whole entry): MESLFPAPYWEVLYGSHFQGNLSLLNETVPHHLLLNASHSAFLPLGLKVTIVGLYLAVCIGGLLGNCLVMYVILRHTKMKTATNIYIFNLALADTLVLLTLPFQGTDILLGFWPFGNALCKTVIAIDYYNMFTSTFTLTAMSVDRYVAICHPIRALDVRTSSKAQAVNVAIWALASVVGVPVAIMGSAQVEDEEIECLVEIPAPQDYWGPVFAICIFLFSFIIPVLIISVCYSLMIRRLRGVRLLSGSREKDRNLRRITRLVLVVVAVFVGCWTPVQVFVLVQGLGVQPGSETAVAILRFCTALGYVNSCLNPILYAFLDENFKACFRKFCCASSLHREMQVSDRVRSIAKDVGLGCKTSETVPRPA

Q: For “β-endorphin: endogenous opioid peptide, 125I-labeled”, which “specific binding of the radioactively-labeled ligand” value (from here on “specific binding”) [1] is on record?
A: no specific binding

Q: For `CN1CC[C@]23c4c5ccc(O)c4O[C@H]2[C@@H](O)C=C[C@H]3[C@H]1C5` [morphine], which analgesia produced (Swiss-Webster mice [2]; morphine sulfate 5 mg/kg s.c.) is on record?
A: profound analgesia

Q: What about the duration of analgesia (Swiss-Webster mice [2]; morphine sulfate 5 mg/kg s.c.) of the same molecule?
A: about 2 hours

Q: And the “time of peak analgesia post-injection” value (Swiss-Webster mice [2]; morphine sulfate 5 mg/kg s.c.)?
A: 30 min

Q: And the Straub tail production (DBA/2J mice; morphine 20 mg/kg)?
A: produced Straub tail

Q: And the “decrease in body temperature” value (DBA/2J mice; morphine 20 mg/kg i.p.)?
A: 6 °C

Q: With “c[D-penicillamine^2, D-penicillamine^5]enkephalin [DPDPE]” as the molecule, how does the “specific binding” value [1] read?
A: no specific binding

Q: Which results are given for `C=CCN1CC[C@]23c4c5ccc(O)c4O[C@H]2C(=O)CC[C@@]3(O)[C@H]1C5` [naloxone, reference compound]?
A: endogenous binding of the radiolabeled ligand [3]: endogenous low levels of specific; hyperalgesia (Swiss-Webster mice [4]): In no case did any mouse treated with OFQ or naloxone exhibit hyperalgesia; effect on the 4 s post-injection increase in TW latency (stress-induced analgesia) (Swiss-Webster mice [4]): attenuated; effect on SIA (decreased number of abdominal constrictions) (mice [5]): reversed

Q: Which results are given for `CC(C)C[C@H](NC(=O)[C@H](CCCCN)NC(=O)[C@H](CCCNC(=N)N)NC(=O)[C@H](C)NC(=O)[C@H](CO)NC(=O)[C@H](CCCCN)NC(=O)[C@H](CCCNC(=N)N)NC(=O)[C@H](C)NC(=O)CNC(=O)[C@@H](NC(=O)[C@H](Cc1ccccc1)NC(=O)CNC(=O)CNC(=O)[C@@H](N)Cc1ccccc1)[C@@H](C)O)C(=O)N[C@@H](C)C(=O)N[C@@H](CC(N)=O)C(=O)N[C@@H](CCC(N)=O)C(=O)O` [OFQ]?
A: toe- and tail-pinch reflexes (mice [6]; all doses tested): normal toe- and tail-pinch reflexes; analgesic effect in hot plate test (mice [6]; icv, hot plate 58° C., cutoff 60 sec): little analgesic effect; analgesic effect, intrathecal (mice [6]; intrathecally 2.5-10 nmole/4 μL/animal): No analgesic effect; precipitated withdrawal syndrome (withdrawal jumping) (C57BL/6J mice; OFQ 0.1-10 nmole i.c.v., 20-min testing period): equally effective in the precipitation of withdrawal; also recorded: unequivocal, albeit modest in comparison to that produced by systemic naloxone; other withdrawal symptoms (C57BL/6J mice; OFQ i.c.v.): wet-dog shakes and ptosis, were observed; effect on pain sensitivity in tail flick and hot-plate assays [7]: induces hyperalgesia; hyperalgesia (Swiss-Webster mice [4]): no evidence of hyperalgesia; effect on the 4 s post-injection increase in TW latency (stress-induced analgesia) (Swiss-Webster mice [4]): attenuated; reversal of morphine analgesia (Swiss-Webster mice [2]; OFQ 2.5-25 nmole i.c.v.): reversed this analgesia in a dose-dependent manner; ED50, 50% inhibition of 5 mg/kg morphine analgesia (Swiss-Webster mice [2]; i.c.v. in a 2.5 μl volume, linear regression): 7.5 nmol; reversal of 20 mg/kg MOR hypothermia (DBA/2J mice; 5 and 10 nmole i.c.v., 60-90 minutes post-MOR injection): significantly reversed; effect of the substance itself on body temperature (DBA/2J mice; 5 or 10 nmole i.c.v.): did not affect body temperature; elimination of morphine Straub tail (DBA/2J mice; at least 5 nmole OFQ icv): effectively eliminated Straub tail in the vast majority of animals; time to elimination of Straub tail following icv injection (DBA/2J mice; at least 5 nmole OFQ icv): 1 to 2 min; inhibition of the analgesic effect of morphine (mice [5]; 2.5 nmole icv, within 30 minutes): pharmaceutically sufficient to inhibit the analgesic effect of morphine; effect on SIA (decreased number of abdominal constrictions) (mice [5]): reversed; horizontal and vertical locomotion (mice [8]; icv 0.1-10 nmole/2 μL/mouse, first 10 minutes): decrease of both horizontal and vertical locomotion; open-field behavioral signs (mice [8]; larger doses, above 1 nmole/2 μL/mouse): profound influence on locomotor activity, as well as a decrease in muscle tone, a loss of righting reflex, and ataxia

Q: For `CCC(=O)C(CC(C)N(C)C)(c1ccccc1)c1ccccc1` (centres unmarked) [methadone], which “endogenous binding of the radiolabeled ligand” value [3] is on record?
A: no or negligible amounts of endogenous methadone binding

Q: What about the Bmax [1] of the same molecule?
A: 400-450 fentomoles/μg protein

Q: And the “specific binding” value [1]?
A: specific binding was found

Q: With `CN1CC[C@]23c4c5ccc(O)c4O[C@H]2[C@@H](O)CC[C@H]3[C@H]1C5` [dihydromorphine] as the molecule, how does the “specific binding” value [1] read?
A: no specific binding

Q: Which “specific binding” value [1] does the source give for `C[C@@H](NC(=O)[C@@H](N)Cc1ccc(O)cc1)C(=O)NCC(=O)N(C)[C@@H](Cc1ccccc1)C(=O)NCCO` [DAMGO, Tyr-DAla-Gly-Met-Phe-Gly-ol] here?
A: no specific binding

Q: With `CCC12CCN(CC3(O)CC3)C(Cc3ccc(O)cc31)C2(C)C` (centres unmarked) [bremacozine] as the molecule, how does the “specific binding” value [1] read?
A: no specific binding
